The text below walks through data of patent US8765748B2, “Indazolyl, benzimidazolyl, benzotriazolyl substituted indolinone derivatives as kinase inhibitors useful in the treatment of cancer” (University Health Network, priority 2007, dated 2014).

Where two headings read alike, the source gives them in different places.

One assay has as its target T1, CHK2 (Homo sapiens, UniProt O96017).
T1 construct: CEREP, France (ran the assays)
Briefly: Kinase Selectivity Assay (CEREP, HTRF). In kind it is biochemical. The following applies: read-out: % Inhibition at 10 μM Concentration, CHK2. As for the experimental part:
(§1) kinase, ROCK2, RSK2, Src kinase, Syk, and TRKA. The % Inhibition was determined
(In TR-FRET formats the signal depends on donor and acceptor labels being close together.)

A further assay addresses T2, CaMK2a (Homo sapiens, UniProt Q9UQM7).
T2 construct: CEREP, France (ran the assays)
The experiment in a line: Kinase Selectivity Assay (CEREP, HTRF). In kind it is biochemical. The following applies: read-out: % Inhibition at 10 μM Concentration, CaMK2alpha. On the procedure: as §1

The target of the next assay is T3, PDK1 (Homo sapiens, UniProt O15530).
T3 sequence (O15530 1-556): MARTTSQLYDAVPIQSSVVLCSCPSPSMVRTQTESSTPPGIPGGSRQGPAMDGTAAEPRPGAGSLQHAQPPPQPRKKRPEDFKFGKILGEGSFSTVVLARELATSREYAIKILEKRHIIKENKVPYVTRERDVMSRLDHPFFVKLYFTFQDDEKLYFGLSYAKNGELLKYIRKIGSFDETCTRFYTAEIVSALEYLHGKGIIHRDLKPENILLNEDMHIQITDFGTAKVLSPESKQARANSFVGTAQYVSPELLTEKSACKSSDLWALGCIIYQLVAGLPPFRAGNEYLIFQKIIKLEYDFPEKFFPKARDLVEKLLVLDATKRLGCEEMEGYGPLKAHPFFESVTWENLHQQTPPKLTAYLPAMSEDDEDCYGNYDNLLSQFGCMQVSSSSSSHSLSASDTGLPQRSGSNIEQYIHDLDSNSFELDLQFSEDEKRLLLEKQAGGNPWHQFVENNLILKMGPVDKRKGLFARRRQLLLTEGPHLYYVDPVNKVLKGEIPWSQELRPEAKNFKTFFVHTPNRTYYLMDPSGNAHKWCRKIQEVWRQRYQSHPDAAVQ
Briefly: Kinase Selectivity Assay (CEREP, HTRF). The assay is classed as biochemical. The following applies: read-out: % Inhibition at 10 μM Concentration, PDK1. As for the experimental part:
as §1

The target of another assay is FGFR1. The experiment in a line: Millipore kinase assay, radiolabelled phosphopeptide filter binding, IC50 estimate. The assay is classed as biochemical. The following applies: estimated from inhibition at three compound concentrations; ATP at the Km. On the procedure:
(§2) Kinase assays at Millipore were performed using a radiolabelled phosphopeptide filter binding detection system, in duplicate, at each compound concentration. The ATP substrate concentration in the reactions was at the Km for each enzyme.
(§3) To allow for a more direct comparison of compound inhibition, an IC50 value was estimated from the inhibition determined at three compound concentrations. Several assumptions were made to allow this calculation using a 4 parameter non linear curve fit model, including full inhibition set at 100%, no inhibition set to 0%, and a curve fit parameter set at 1. The inflection point was reported as the estimated IC50.

For a further assay, the target named is T4, FLT-1 (Homo sapiens, UniProt P17948).
T4 construct: purchased Millipore (assay service)
The assay is described as above. The assay is classed as biochemical. The following applies: estimated from inhibition at three compound concentrations; ATP at the Km. On the procedure: as §2, §3

The next assay has as its target T5, PDGFRβ (Homo sapiens, UniProt P09619).
T5 construct: purchased Millipore (assay service)
The assay is described as above. In kind it is biochemical. The following applies: estimated from inhibition at three compound concentrations; ATP at the Km. As for the experimental part: as §2, §3

In the next assay the test system is A549 lung cancer cells. Briefly: Cell growth inhibition, Sulforhodamine B assay (SRB). In kind it is cell-based. The following applies: Homo sapiens, A549, 120 h, 5 days culture, read-out: Cell Line GI50 Range, A-549. The procedure, abridged: (§4)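 Cells seeded 24 h before compound addition, then exposed to 10 nM–50 μM final compound in DMEM + 10% FBS for 5 days. Growth measured by TCA fixation, SRB staining and absorbance at 570 nm; % inhibition relative to DMSO-only cells, with GI50 fitted for cytotoxic compounds.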
Background: In SRB staining, fixed cells bind dye roughly in proportion to their protein.

The subject of assay [1] is HCC1954 basal breast cancer cell line. Described as above. In kind it is cell-based. The following applies: Homo sapiens. The procedure, abridged: as §4
In assay [2] the test system is MCF-7 luminal breast cancer cell line. Described as above. In kind it is cell-based. The following applies: Homo sapiens, MCF7, 120 h; 5 days culture, SRB; read-out: Cell Line GI50 Range, MCF-7. The procedure, abridged: as §4
The subject of assay [3] is MDA-MB-468 basal breast cancer cell line. The description is as above. The following applies: Homo sapiens, MDA-MB-468, 120 h; 5 days culture, SRB; read-out: Cell Line GI50 Range, MDA-MB-468. In kind it is cell-based. The procedure, abridged: as §4
The next assay deals with SW620 colon cancer cells. The assay is described as above. The assay is classed as cell-based. The following applies: Homo sapiens, SW-620, 120 h, 5 days culture, read-out: Cell Line GI50 Range, SW-620. The procedure, abridged:
as §4

In assay [4] the test system is human mammary epithelial primary cells (HMEC). The assay is described as above. The following applies: 120 h, 5 days culture, read-out: Cell Line GI50 Range, HMEC. In kind it is cell-based. The procedure, abridged: as §4
The mark [5] stands for this setting: HCC1954, 120 h, 5 days culture, read-out: Cell Line GI50 Range, HCC-1954.
Where [6] appears, read: HCC1954, extended panel (Table 9), read-out: GI50 Range, HCC1954.

The term IC50 denotes the point on the concentration scale where inhibition reaches its midpoint. As usually defined, the GI50 is the concentration giving 50% growth inhibition.

T4 sequence (P17948 27-1338): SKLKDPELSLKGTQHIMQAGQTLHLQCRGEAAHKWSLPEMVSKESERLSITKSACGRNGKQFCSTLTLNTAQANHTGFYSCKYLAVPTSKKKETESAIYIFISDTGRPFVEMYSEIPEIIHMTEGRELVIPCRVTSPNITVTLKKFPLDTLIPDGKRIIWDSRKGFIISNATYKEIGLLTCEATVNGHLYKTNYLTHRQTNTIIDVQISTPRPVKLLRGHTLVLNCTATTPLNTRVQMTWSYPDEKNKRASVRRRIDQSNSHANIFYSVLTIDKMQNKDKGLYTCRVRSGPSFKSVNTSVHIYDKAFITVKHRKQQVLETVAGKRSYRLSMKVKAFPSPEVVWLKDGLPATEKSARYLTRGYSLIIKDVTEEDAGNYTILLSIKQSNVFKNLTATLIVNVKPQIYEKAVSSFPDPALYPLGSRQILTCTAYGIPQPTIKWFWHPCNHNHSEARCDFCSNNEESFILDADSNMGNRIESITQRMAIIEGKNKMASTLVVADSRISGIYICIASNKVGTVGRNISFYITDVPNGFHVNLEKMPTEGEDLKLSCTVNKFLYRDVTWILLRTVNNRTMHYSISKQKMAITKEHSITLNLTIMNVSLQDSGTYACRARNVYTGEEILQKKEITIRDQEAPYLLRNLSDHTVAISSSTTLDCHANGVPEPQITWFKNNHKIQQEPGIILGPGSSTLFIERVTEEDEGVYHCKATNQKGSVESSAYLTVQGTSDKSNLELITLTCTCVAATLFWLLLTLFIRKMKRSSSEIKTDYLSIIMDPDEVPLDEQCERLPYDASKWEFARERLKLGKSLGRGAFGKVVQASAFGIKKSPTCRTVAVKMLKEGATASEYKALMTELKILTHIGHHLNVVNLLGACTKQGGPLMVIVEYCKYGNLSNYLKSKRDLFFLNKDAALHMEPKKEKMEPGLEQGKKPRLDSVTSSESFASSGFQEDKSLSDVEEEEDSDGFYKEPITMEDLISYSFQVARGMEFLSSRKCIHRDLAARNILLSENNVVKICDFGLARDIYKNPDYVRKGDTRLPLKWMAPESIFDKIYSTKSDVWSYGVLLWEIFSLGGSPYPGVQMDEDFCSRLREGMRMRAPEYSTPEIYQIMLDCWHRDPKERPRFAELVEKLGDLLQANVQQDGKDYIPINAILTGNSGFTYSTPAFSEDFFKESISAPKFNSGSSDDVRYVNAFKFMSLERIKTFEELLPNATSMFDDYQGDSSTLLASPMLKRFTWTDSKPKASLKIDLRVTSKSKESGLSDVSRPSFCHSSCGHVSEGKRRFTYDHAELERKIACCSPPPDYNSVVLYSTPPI
T5 sequence (P09619 33-1106): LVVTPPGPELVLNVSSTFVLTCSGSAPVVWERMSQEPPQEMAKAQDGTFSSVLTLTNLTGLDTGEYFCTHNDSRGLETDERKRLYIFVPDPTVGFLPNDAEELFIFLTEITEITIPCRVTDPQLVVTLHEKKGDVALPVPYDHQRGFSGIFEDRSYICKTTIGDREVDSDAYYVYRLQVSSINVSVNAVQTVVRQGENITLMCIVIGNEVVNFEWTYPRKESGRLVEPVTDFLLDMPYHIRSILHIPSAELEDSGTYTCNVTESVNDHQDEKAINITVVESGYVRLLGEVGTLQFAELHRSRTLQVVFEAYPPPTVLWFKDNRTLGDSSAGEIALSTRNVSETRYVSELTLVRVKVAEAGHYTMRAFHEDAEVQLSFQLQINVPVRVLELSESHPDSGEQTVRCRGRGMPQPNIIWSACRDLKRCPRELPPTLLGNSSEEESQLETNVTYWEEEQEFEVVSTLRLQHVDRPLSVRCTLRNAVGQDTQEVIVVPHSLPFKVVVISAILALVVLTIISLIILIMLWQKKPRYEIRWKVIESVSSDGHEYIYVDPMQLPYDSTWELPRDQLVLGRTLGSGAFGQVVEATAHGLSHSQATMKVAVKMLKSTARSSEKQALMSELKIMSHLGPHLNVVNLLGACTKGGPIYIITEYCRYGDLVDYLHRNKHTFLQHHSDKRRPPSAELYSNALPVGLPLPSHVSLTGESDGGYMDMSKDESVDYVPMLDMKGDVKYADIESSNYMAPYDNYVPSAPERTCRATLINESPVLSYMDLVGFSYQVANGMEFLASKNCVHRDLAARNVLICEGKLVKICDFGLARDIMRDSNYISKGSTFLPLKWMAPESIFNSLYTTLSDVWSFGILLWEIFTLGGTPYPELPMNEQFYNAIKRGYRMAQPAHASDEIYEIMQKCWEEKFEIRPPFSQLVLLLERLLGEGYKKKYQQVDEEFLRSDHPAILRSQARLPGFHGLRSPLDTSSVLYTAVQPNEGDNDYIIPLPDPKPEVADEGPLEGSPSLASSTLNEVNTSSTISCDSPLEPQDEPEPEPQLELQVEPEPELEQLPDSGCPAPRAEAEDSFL
T2 sequence (Q9UQM7 whole entry): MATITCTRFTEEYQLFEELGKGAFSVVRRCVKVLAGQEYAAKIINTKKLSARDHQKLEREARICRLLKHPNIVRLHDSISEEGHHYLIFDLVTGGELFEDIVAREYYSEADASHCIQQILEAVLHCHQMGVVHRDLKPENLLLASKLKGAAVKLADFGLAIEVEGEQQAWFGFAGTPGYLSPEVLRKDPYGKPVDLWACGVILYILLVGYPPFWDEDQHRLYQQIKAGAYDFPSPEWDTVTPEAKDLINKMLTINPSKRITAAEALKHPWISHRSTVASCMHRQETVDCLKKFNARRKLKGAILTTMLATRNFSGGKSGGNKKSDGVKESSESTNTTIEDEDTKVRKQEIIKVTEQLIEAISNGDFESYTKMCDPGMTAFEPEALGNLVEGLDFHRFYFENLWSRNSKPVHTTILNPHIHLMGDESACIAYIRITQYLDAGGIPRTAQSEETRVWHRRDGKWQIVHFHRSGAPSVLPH
T1 sequence (O96017 whole entry): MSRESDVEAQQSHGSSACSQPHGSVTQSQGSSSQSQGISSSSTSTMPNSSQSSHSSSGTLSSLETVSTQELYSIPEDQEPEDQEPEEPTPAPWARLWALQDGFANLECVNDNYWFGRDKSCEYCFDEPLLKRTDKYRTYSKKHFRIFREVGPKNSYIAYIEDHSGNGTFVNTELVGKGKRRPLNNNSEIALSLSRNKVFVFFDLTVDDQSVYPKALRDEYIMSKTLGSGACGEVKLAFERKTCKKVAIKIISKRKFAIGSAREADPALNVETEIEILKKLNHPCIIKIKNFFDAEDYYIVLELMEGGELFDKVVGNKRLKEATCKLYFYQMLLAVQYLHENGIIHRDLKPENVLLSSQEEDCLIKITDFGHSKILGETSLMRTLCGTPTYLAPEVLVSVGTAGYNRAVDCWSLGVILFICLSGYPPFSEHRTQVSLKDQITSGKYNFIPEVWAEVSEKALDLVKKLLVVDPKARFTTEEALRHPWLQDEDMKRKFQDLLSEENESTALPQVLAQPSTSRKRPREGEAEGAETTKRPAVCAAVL

Consider `COc1ccc2c(c1)C(=Cc1ccc3c(-c4ccc(N5CCN(C)CC5)nc4)n[nH]c3c1)C(=O)N2` (mixture of isomers) [Example A97, (E and Z)-5-methoxy-3-((3-(6-(4-methylpiperazin-1-yl)pyridin-3-yl)-1H-indazol-6-yl)methylene)indolin-2-one], for which the inhibition at 10 µM on CHK2 was 4%; on CaMK2a it was 14%; on PDK1, 73%. The IC50 is under 5 µM on FGFR1, under 5 µM at FLT-1 and 5 to 50 µM on PDGFRβ. Moreover, the GI50 (in the assay on A549 lung cancer cells; in assay [1] (setting [5]); in assay [1] (setting [6]); in [2]; in assay [3]; in the assay with SW620 colon cancer cells) was under 5 µM throughout. In addition, in [4], the GI50 was 20 to 50 µM.

Turning to `O=C1Nc2ncc(Br)cc2C1=Cc1ccc2c(/C=C/c3ccncc3)n[nH]c2c1` (mixture of isomers) [Example A109, (E and Z)-5-bromo-3-((3-((E)-2-(pyridin-4-yl)vinyl)-1H-indazol-6-yl)methyl-ene)-1H-pyrrolo[2,3-b]pyridin-2(3H)-one], the GI50 in the assay with A549 lung cancer cells was under 5 µM; in assay [1] (setting [5]) it was over 50 µM; in assay [1] (setting [6]) it was over 50 µM; in assay [2] it was under 5 µM; in [3], under 5 µM; in the assay on SW620 colon cancer cells, under 5 µM. The GI50 in assay [4] is over 50 µM.

For `O=C1Nc2ccccc2/C1=C\c1ccc2[nH]nnc2c1` [Example A1, (E)-3-((1H-benzo[d][1,2,3]triazol-5-yl)methylene)indolin-2-one], the inhibition at 10 µM on CHK2 was 14%; on CaMK2a it was 4%; on PDK1, -3%.

On to `CN(C)Cc1ccc(/C=C/c2n[nH]c3cc(C=C4C(=O)Nc5ccccc54)ccc23)cc1` (mixture of isomers) [Example A106, (E and Z)-3-[(3-{(E)-2-[4-((dimethylamino)methyl)-phenyl]-ethenyl}-1H-indazol-6-yl)methylidene]-1,3-dihydro-2H-indol-2-one 2,2,2-trifluoroacetate], for which the IC50 at FGFR1, at FLT-1 and on PDGFRβ was under 5 µM each time. Besides, the GI50 in the assay with A549 lung cancer cells was under 5 µM; in [1] (setting [5]), under 5 µM; in assay [2] it was under 5 µM; in assay [3], under 5 µM; in the assay with SW620 colon cancer cells it was under 5 µM; in [4] it was 5 to 20 µM.

`O=C1Nc2ccccc2/C1=C\c1ccc2c(/C=C/c3ccccc3Cl)n[nH]c2c1` [Example A60, (E)-3-((3-((E)-2-chlorostyryl)-1H-indazol-6-yl)methylene)indolin-2-one]: the figures for the inhibition at 10 µM at CHK2, at CaMK2a and on PDK1 were 6%, -2% and 1%, respectively.

Take `CN1CCN(c2ccc(/C=C/c3n[nH]c4cc(C=C5C(=O)Nc6ccccc65)ccc34)cn2)CC1` (mixture of isomers) [Example A108, (E and Z)-3-((3-((E)-2-(6-(4-methylpiperazin-1-yl)pyridin-3-yl)vinyl)-1H-indazol-6-yl)methylene)indolin-2-one]: the GI50 (in the assay on A549 lung cancer cells; in assay [1] (setting [5]); in assay [1] (setting [6]); in [2]; in assay [3]; in the assay with SW620 colon cancer cells) was under 5 µM throughout. Also, in assay [4], the GI50 was under 5 µM.

For `O=C1Nc2ccccc2/C1=C\c1ccc2cn[nH]c2c1` [Example A5, (E)-3-((1H-indazol-6-yl)methylene)indolin-2-one], the results for the inhibition at 10 µM on CHK2, on CaMK2a and on PDK1 were 2%, -3% and 2%, respectively.

`O=C1Nc2ccccc2C1=Cc1ccc2c(/C=C/c3ccccn3)n[nH]c2c1` (mixture of isomers) [Example A41, (E and Z)-3-((3-((E)-2-(pyridin-2-yl)vinyl)-1H-indazol-6-yl)methylene)indolin-2-one]: the inhibition at 10 µM on CHK2 is 22%; on CaMK2a, 31%; on PDK1, 4%. The IC50 at FGFR1, at FLT-1 and at PDGFRβ was under 5 µM each time. Moreover, the GI50 is 5 to 20 µM with A549 lung cancer cells; 20 to 50 µM in assay [1] (setting [5]); under 5 µM in assay [1] (setting [6]); under 5 µM in assay [2]; under 5 µM in [3]; 5 to 20 µM in the assay on SW620 colon cancer cells. For the same molecule, the GI50 in assay [4] was over 50 µM.
